Assay results taken from US12208108B2, “Drug targets of delayed aging and human brain diseases” (Texas Tech University System, priority 2016, dated 2025).

Tests used:
Type in all cases: in vivo
wild-type mice = assay: Morris Water Maze, wild-type mice; details: 12-month-old WT mice, 3 weeks, vs control WT mice
Text: (§1) Impact of MitoQ in Wild-type and Transgenic Tau mice: The inventors investigated the protective effects of MitoQ and daily exercise in 12-month-old transgenic Tau (P301L strain) and age-matched wild-type mice. The purpose of this study was to assess the lifestyle factors (antioxidant-enriched diet) and physical exercise (Treadmill) effects on cognitive behavior and AD pathologies (Abeta, P-tau, mitochondrial and synaptic) in AD mice.
(§2) First, the inventors fed wild-type, Tau and APP/PS1 mice with (500 uM of MitoQ in drinking water) and physical exercise (30 minutes on Treadmill) for 3 weeks. The inventors used 12-month-old animals (n=7) per group for all treatments (WT-MitoQ, WT-Treadmill, WT-MitoQ+Treadmill), Tau (Tau-MitoQ, Tau-Treadmill,Tau-MitoQ+Treadmill) and APP/PS1 (APP/PS1-MitoQ, APP/PS1-Treadmill, APP/PS1-MitoQ+Treadmill). Age-matched control mice were used for all genotypes in these studies. After 3-weeks treatment, the cognitive behavior using Morris Water Maze test was assessed.
(§3) The inventors conducted 11 trials (4 training and 7 actual) for latency to find the platform for all groups of mice.

[1] = test system: transgenic Tau (P301L strain) mice; assay: Morris Water Maze, transgenic Tau mice; details: 12-month-old Tau mice, 3 weeks
Text: as §1, §2, §3

BACHD mice [2] = assay: Behavioral analysis in BACHD mice; details: BACHD mice treated for six months vs untreated BACHD mice
Method: Huntington's disease. To determine whether Mdivi1 reduces excessive mitochondrial fragmentation and enhances mitochondrial function and synaptic activity in bacterial artificial chromosome transgenic Huntington's disease (BACHD) mice.
(§4) The inventors treated BACHD mice and non-transgenic wild-type mice with Mdivi-1 for six months. Behavioral analysis were performed using rotarod (motor coordination), open field (locomotor activity), Y-maze (working memory) and tail suspension (neurological phenotype) in both treated and untreated BACHD and non-transgenic wild-type (WT) mice. […] The inventors also completed studies on the cell and molecular biology aspects of mitochondria and mutant huntingtin experiments. And also completed experiments on mitochondrial morphology (number and length) dendritic spine density in Mdivi-1-treated and untreated BACHD and non-transgenic WT mice.

BACHD mice [3] = assay: Gene/protein levels, dendritic spines and mitochondrial morphology in BACHD mice
Method: as §4
Mdivi-1-treated BACHD mice had increased dendritic spines in striatal, cortical and hippocampal tissues of Mdivi-1-treated BACHD mice relative Mdivi-1-untreated BACHD mice. Mdivi-1-treated BACHD mice had increased mitochondrial length and reduced the size of mitochondrial size.

[4] = treated vs untreated BACHD mice

With `COC1=C(OC)C(=O)C(CCCCCCCCCC[P+](c2ccccc2)(c2ccccc2)c2ccccc2)=C(C)C1=O` [MitoQ, Phosphonium, [10-(4,5-dimethoxy-2-methyl-3,6-dioxo-1,4-cyclohexadien-1-yl)decyl]triphenyl-, methanesulfonate] as the molecule, how does the “latency to find the platform” value (wild-type mice; 500 uM in drinking water) read?
The value was “did not show any significant difference”.

What about the “latency to find the platform” value (wild-type mice; MitoQ+Treadmill (30 minutes)) of the same molecule?
Its value is “significantly faster”.

And the “latency to reach platform” value ([1]; 500 uM in drinking water, vs MitoQ untreated Tau mice)?
The value was “much quicker”.

What about the “latency to reach platform” value ([1]; MitoQ+Treadmill, vs MitoQ+Treadmill untreated Tau mice) of the same molecule?
The value was “significantly faster”.

Which results are given for `COc1cc(-n2c(S)nc3ccccc3c2=O)c(Cl)cc1Cl` [Mdivi-1, 3-(2,4-Dichloro-5-methoxyphenyl)-2,3-dihydro-2-thioxo-4(1H)-quinazolinone, 3-(2,4-Dichloro-5-methoxyphenyl)-2-sulfanyl-4(3H)-quinazolinone]?
behavioral phenotype (rotarod, open field, Y-maze, tail suspension) (BACHD mice [2]): significantly improved; dendritic spines (BACHD mice [3]; striatal, cortical and hippocampal tissues, treated vs untreated BACHD mice): increased; mitochondrial length (BACHD mice [3]; treated BACHD mice): increased; size of mitochondrial size (BACHD mice [3]; treated BACHD mice): reduced; Mitochondrial biogenesis (PGC1a, Nrf1, Nrf2 and TFAM) genes (BACHD mice [3]; [4]): increased; autophagy (LC3A, LC3B, ATG5, Beclin 1) genes (BACHD mice [3]; [4]): increased; mRNA and protein levels of fission genes (Drp1 and Fis1) (BACHD mice [3]; [4]): significantly reduced; mitochondrial fusion genes (Mfn1, Mfn2, and Opa1) (BACHD mice [3]; [4]): significantly increased; mitophagy (PINK1, TERT, BCL2, BNIP3L) genes (BACHD mice [3]; [4]): increased; synaptic (synaptophysin, PSD95, DARPP32) genes (BACHD mice [3]; [4]): increased
